# Source: patent US20070292888A1, “Methods for Measuring Enzyme Activities in Cells, Blood, Tumors and Tissues” (GEN-PATH PHARMACEUTICALS, INC., priority 2004, published 2007)
# Target: T1, transketolase (TK) (Mus musculus, UniProt P40142)
# T1 construct: from tissue; host or cells: mouse blood, spleen, tumor, kidney, lung, liver (crude lysates)
# T1 sequence (P40142 1-623): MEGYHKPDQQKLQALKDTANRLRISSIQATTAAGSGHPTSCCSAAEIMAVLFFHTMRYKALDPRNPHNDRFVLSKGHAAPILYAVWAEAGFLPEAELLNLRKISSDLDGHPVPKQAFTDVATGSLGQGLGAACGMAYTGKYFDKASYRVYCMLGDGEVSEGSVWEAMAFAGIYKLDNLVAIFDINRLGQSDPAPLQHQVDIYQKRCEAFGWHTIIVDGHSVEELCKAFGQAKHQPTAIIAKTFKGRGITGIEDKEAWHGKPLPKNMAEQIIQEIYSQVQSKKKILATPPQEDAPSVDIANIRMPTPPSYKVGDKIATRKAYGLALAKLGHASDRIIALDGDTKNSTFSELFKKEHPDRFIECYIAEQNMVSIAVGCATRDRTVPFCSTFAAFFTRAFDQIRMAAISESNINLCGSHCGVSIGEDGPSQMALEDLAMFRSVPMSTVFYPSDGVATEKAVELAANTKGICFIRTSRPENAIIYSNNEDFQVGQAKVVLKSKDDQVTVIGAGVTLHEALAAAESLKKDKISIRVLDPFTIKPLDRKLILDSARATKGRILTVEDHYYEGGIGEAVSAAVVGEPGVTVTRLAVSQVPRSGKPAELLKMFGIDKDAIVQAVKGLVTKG
# Test: Transketolase activity in blood, tumors and tissues of treated mice (fluorescence NADH assay)
# Format: in vivo
# Protocol: Blood samples from mice were taken (40 μl whole blood) serially or from mice sacrificed at the end of the experiment. Tissues, such as tumors (e.g. from implantation, xenograft, or arising spontaneously), brain, heart, kidney, liver, lung and spleen were taken and flash frozen in liquid nitrogen or on dry ice and stored in −80° C. until time of assay. Four volumes of cold lysis buffer (20 mM HEPES, pH 7.5, 1 mM EDTA, 0.2 g/l Triton X-100® and 0.2 g/L sodium deoxycholate, supplemented with 1 mM DTT and 1 mM PMSF just before use) were added to the blood, which was dissolved by vortexing. For blood that was frozen before coagulation, a clear lysate was obtained. If coagulation occurred, homogenization was used as described below for tissue. Tissues were suspended in lysis buffer in 10 ml round bottom tubes and homogenized with PowerGen 125® (Fisher Scientific) for four seconds at highest power while submerged in an ice-water bath. This step was repeated after a few seconds, as necessary. The lysate was used right away or else flash frozen and stored at −80° C. until assay time. Eighty microliters (80 μl) of lysate (containing 5 mg tissue/ml lysate for TK and kGDH, 0.5 mg/ml for G6PDH) were put directly in individual wells of a 96-well clear-bottomed assay plate. Twenty microliters (20 μl) of 5× reaction mix was added to initiate each enzymatic reaction.
# Each reaction was monitored for the appearance of NADH (for transketolase, alpha-ketoglutarate dehydrogenase, pyruvate dehydrogenase) or NADPH (for glucose-6-phosphate dehydrogenase) at room temperature in a fluorescent plate reader with excitation at 340 nm and emission at 470 nm in kinetic mode. The velocity was determined by the slope of the initial linear range of increasing fluorescence, expressed in fluorescent units (FU)/min. The protein concentration in the lysate was determined using Bradford assays (BioRad) with BSA as a standard. The enzymatic velocity was normalized by the total protein concentration for inter-sample comparison. To obtain reliable results across samples, similar starting protein concentrations were prepared (within approximately 30%) so that the normalized velocity required only small adjustments. This was achieved by weighing the tissue and putting in lysis buffer so that the suspensions contained the same amount of tissue/ml lysis buffer for all samples.
# For TK, 15 μl of 5× assay buffer containing final concentrations of 50 mM HEPES, 40 mM KCl, 2.5 mM MgCl2, 5 mM NaArsenate, 1 mM NAD, 2 unit/ml glyceraldehydes-3-phosphate dehydrogenase (GAPDH) was added to 80 μl of lysate. Reaction kinetics were monitored on a fluorescent plate reader to allow any possible background activity via GAPDH to burn out. Then 5 μl of substrate mix containing final concentrations of 0.5 mM ribose-5-phosphate and 0.5 mM xylulose-5-phosphate was added to initiate the reaction. The reaction kinetics were monitored using a fluorescent plate reader, and the slope of the initial linear range was recorded as the velocity of the reaction (FU/min). See FIG. 1 for the reaction scheme.
# To investigate the amount of in vivo enzyme inhibition following treatment with an inhibitor, we administered a single dose of N3PT (100 mg/kg, intraperitoneally [i.p.]) and blood, spleen and brain samples were collected at various times from 0-120 hours after dosing. The enzymatic activities were determined as described in Example 1. TK activity was measured in blood and spleen. Because TK activity in the brain is below the detection limit of the assay, kGDH activity was measured in brain samples. Measurements were taken at various time intervals
# We measured enzyme activity in an expanded panel of tissues from mice treated with N3PT or OxyT for 11 days i.p., twice per day. Samples were taken from tumors, blood, brain, heart, kidney, lung and spleen, and TK, kGDH and G6PDH activities were determined as described above.
compound,measurement,setting,value
"Cc1ccc(C[n+]2csc(CCO)c2C)c(N)n1 [N3PT, 3-[(2-amino-6-methyl-3-pyridinyl)methyl]-5-(2-hydroxyethyl)-4-methyl thiazolium]",percent inhibition of TK activity in tumors,"11 days i.p. twice per day, 100 mg/kg, compared to vehicle control",70%
same,liver enzymatic (TK) activity,"11 days i.p. twice per day, liver",hardly affected
same,Inhibition of transketolase activity in the spleen,"single dose 100 mg/kg i.p., 8-24 hours post-treatment",up to 35%
same,Transketolase inhibition at 1 hour post-treatment,"single dose 100 mg/kg i.p., 1 hour post-treatment",detectable
same,Transketolase inhibition at the final sampling at 120 hours,"single dose 100 mg/kg i.p., 120 hours (5 days)",still evident
same,inhibition of transketolase activity in the blood,"single dose N3PT 100 mg/kg i.p., at the nadir (12 hours)",80%
